Source: patent US11931464B2, “Minimizing agglomeration, aeration, and preserving the coating of pharmaceutical compositions comprising ibuprofen” (Catalent U.K. Swindon Zydis Limited, priority 2019, dated 2024)

Legend:
[1] = Aeration of suspension mixes, height of the foam in the mixing vessel; assay type: physicochemical; details: for Foam Height: 0% mix: 5 mm
Description: (§1) The effectiveness of chemical compounds comprising terpene and/or terpinol at minimizing aeration can be determined in part by measuring the particle size of the hydrophobic coated Ibuprofen in pharmaceutical suspension over time. If the chemical compound is effective, the aeration of the suspension will be adequately low and the particle size of the hydrophobic coated Ibuprofen will remain constant or decrease very little over time. If ineffective, the aeration of the suspension will be higher than desired and the particle size of the hydrophobic coated Ibuprofen can decrease more substantially over time. The extent of aeration of the suspension is assessed by measurement of height of the foam in the mixing vessel. The particle size of the functionally-coated particles can be measured using laser diffraction, a particle analyzer such as a Malvern Mastersizer, or any other suitable means for analyzing fine particles. Example 7: A series of suspension mixes were manufactured by mixing the coated Ibuprofen in the matrix solution/suspension containing various levels of limonene, orange flavor, and strawberry flavor. The height of the foam from these suspension is summarized in Table 7, 8, and 9 respectively.

[2] = Particle size of hydrophobic coated Ibuprofen in suspension with liquid flavor or limonene; assay type: physicochemical; details: 0.25% w/w versus 0.45% w/w and 0.75% w/w, 24 hours
Description: as §1, with “particles.” for “particles. Example 7: A series of suspension mixes were manufactured by mixing the coated Ibuprofen in the matrix solution/suspension containing various levels of limonene, orange flavor, and strawberry flavor. The height of the foam from these suspension is summarized in Table 7, 8, and 9 respectively.”
Example 8: FIGS. 10, 11, and 12 show the decrease in particle size (d10, d50, and d90, respectively) of hydrophobic coated Ibuprofen in a pharmaceutical suspension comprising various concentrations of liquid orange flavor. A particle size expressed in terms of its d10 means that 10 percent of the particles in a given volume of sample lie below a given particle size. […]

Question: With `C=C(C)[C@H]1CC=C(C)CC1` [limonene] as the compound, how does the “Aeration of the suspension” value ([1]; 0.25% w/w) read?
Answer: The value was “sufficiently low amount of aeration”.

Question: And the “Foam Height” value ([1]; 0.30% w/w in mix with coated Ibuprofen)?
Answer: The value was 1 mm.

Question: What about the “Foam Height” value ([1]; 0.6% w/w in mix with coated Ibuprofen) of the same compound?
Answer: The value was 1 mm.

Question: What about the “Foam Height” value ([1]; […] w/w in mix with coated Ibuprofen) of the same compound?
Answer: Its value is 2 mm.

Question: What about the Effect on aeration ([1]; level […] w/w and above) of the same compound?
Answer: Its Effect on aeration is “minimize the aeration”.

Question: What about the “Effect on the coating (particle size d10, d50, d90)” value [2] of the same compound?
Answer: Its value is “much less deleterious effect”.
